pIC50, pKd: −log10 of the molar value.
Tests used:
AsPC-1 = experiment: In vitro cell proliferation inhibition assay (CellTiter-Glo), AsPC-1; type: cell-based; conditions: AsPC-1, KRAS (p.G12D), 72 h; read-out: IC50, antiproliferative activity
Protocol: (§1) Due to the diversity of RAS mutations, and in order to evaluate the activity of the compounds in different RAS mutant cell lines, we selected cell lines with KRAS^G12D, KRAS^G12V, KRAS^G12c, NRAS^q61L, KRAS^G13D, KRAS^G12R, and KRAS^WT mutations (see the table below for in vitro activity evaluation and screening of the compounds.
(§2) According to the doubling time of different cell lines, different numbers of cells (1000-5000 cells/well) were seeded into 96-well plates containing 180 μL of the corresponding culture medium, and incubated overnight in a cell incubator at 37 °C with 5% C02. On the following day, the test compounds were pre-diluted in the culture medium in a 3-fold serial dilution series, with the highest concentration being […], resulting in 10 concentration gradients in total. Subsequently, 20 μL of culture medium containing the compounds at different concentrations was added to the cells in the 96-well plates, ensuring a final compound concentration of up to 10 μM, with 10 concentrations in 3-fold dilution. After co-incubation of the cells with the compounds for 72 h, the 96-well plates were removed from the incubator and equilibrated at room temperature for 30 min. Then, 25 μL of CellTiter-Glo® Reagent was added to each well and mixed thoroughly, followed by incubation at room temperature for 10 min. Subsequently, 100 μL of the samples was transferred to white 96-well plates (OptiPlate™-96, PerkinElmer), and […] signal values were read using a multifunctional microplate reader (SpectraMax i3x, Molecular Devices). The signal values were then normalized, and curve fitting was performed using a four-parameter logistic regression equation to calculate the half maximal inhibitory concentration (IC50) of the compounds against the cell lines.

SW480 = experiment: In vitro cell proliferation inhibition assay (CellTiter-Glo), SW480; type: cell-based; conditions: SW480, KRAS (p.G12V), 72 h; read-out: IC50, antiproliferative activity
Protocol: as §1, §2

H358 = experiment: In vitro cell proliferation inhibition assay (CellTiter-Glo), H358; type: cell-based; conditions: H358, KRAS (p.G12C), 72 h; read-out: IC50, antiproliferative activity
Protocol: as §1, §2

HepG2 = experiment: In vitro cell proliferation inhibition assay (CellTiter-Glo), HepG2; type: cell-based; conditions: HepG2, NRAS (p.Q61L), 72 h; read-out: IC50, antiproliferative activity
Protocol: as §1, §2

HCT116 = experiment: In vitro cell proliferation inhibition assay (CellTiter-Glo), HCT116; type: cell-based; conditions: HCT116, KRAS (p.G13D), 72 h; read-out: IC50, antiproliferative activity
Protocol: as §1, §2

PSN1 = experiment: In vitro cell proliferation inhibition assay (CellTiter-Glo), PSN1; type: cell-based; conditions: PSN1, KRAS (p.G12R), 72 h; read-out: IC50, antiproliferative activity
Protocol: as §1, §2

MV411 = experiment: In vitro cell proliferation inhibition assay (CellTiter-Glo), MV411; type: cell-based; conditions: MV411, KRAS wild type, 72 h; read-out: IC50, antiproliferative activity
Protocol: as §2

cyclophilin A (CypA) = molecular target: T1, cyclophilin A (CypA) (Homo sapiens, UniProt P62937); experiment: Binary complex binding assay (BLI); conditions: His-tagged CypA, pH 7.4, 1:1 binding model; for pKd: read-out: KD1 (binary complex equilibrium dissociation constant); for kon: read-out: ka (association rate constant); for koff: read-out: kdis (dissociation rate constant)
T1 construct: purchased R&D 3589-CAB
T1 sequence (P62937 whole entry): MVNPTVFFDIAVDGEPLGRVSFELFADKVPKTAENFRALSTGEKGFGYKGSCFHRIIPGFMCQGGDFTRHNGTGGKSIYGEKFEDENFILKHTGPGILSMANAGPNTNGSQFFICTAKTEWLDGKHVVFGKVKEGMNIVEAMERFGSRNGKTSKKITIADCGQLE
Protocol: To evaluate the binding ability of the test compounds to cyclophilin A (CypA), we employed a Bio-layer Interferometry (BLI) method (Octet R8) to monitor the binding kinetics between the compounds and CypA, and to calculate the affinity of the binary complex. His-tagged CypA protein (3589-CAB, R&D) was first immobilized on an NTA sensor, followed by baseline equilibration for 120 seconds in the assay buffer (20 mM HEPES, pH 7.4, 150 mM NaCl, 5 mM MgCl2, 1 mM TCEP, 0.01% Tween 20). The sensor was then exposed to buffer solutions containing different concentrations of the compounds to monitor the association process in real time. When the high-concentration compound binding reached a plateau, the sensor was transferred to compound-free buffer to measure the dissociation process. To ensure data accuracy, DMSO normalization was performed, non-specific binding was minimized by buffer optimization, and negative and positive controls were set to verify assay specificity. Data were processed using Octet Analysis Studio 13.0, analyzed using a 1:1 binding model, and the association rate constant (ka), dissociation rate constant (kdis), and equilibrium dissociation constant (KD1) were calculated.

[1] = molecular target: ternary complex comprising RAS and CypA; KRAS^G12D (Homo sapiens, UniProt P01116+P62937, G12D); experiment: Ternary complex binding assay (BLI), KRAS G12D; conditions: GMPPNP-loaded KRAS^G12D, fixed concentration of CypA, pH 7.4, read-out: KD2 (ternary complex equilibrium dissociation constant)
Chain of ternary complex comprising RAS and CypA; KRAS^G12D (P01116 1-188 isoform P01116-2 G12D): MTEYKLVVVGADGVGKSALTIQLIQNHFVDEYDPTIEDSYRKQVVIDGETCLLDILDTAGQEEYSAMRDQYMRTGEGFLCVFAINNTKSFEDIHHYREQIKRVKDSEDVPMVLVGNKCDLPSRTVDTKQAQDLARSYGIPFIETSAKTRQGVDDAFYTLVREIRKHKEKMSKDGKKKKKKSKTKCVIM
Chain of ternary complex comprising RAS and CypA; KRAS^G12D (P62937 whole entry): as the sequence (P62937 whole entry) above
Protocol: (§3) To evaluate the ability of the test compounds to induce the formation of a ternary complex comprising RAS and CypA, we employed a Bio-layer Interferometry (BLI) method (Octet R8) to monitor the binding kinetics among the compounds, RAS, and CypA, and to calculate the affinity of the ternary complex. GMPPNP was first incubated with RAS protein to load GMPPNP onto RAS. His-tagged RAS proteins with different mutations were then immobilized on NTA sensors, followed by baseline equilibration for 120 seconds in the assay buffer (20 mM HEPES, pH 7.4, 150 mM NaCl, 5 mM MgCl2, 1 mM TCEP, 5 μM GMPPNP, 0.01% Tween 20). The sensors were subsequently exposed to buffer containing various concentrations of the compounds and a fixed concentration of CypA, and the association phase of ternary complex formation was monitored in real time. Once binding reached a plateau, the sensors were transferred to compound- and CypA-free buffer to measure the dissociation phase. To ensure accuracy, DMSO normalization was performed, buffer composition was optimized to reduce non-specific binding, and both negative and positive controls were employed to verify assay specificity. Data were processed using Octet Analysis Studio 13.0, analyzed using a 1:1 binding model, and the association rate constant (ka), dissociation rate constant (kdis), and equilibrium dissociation constant (KD2) were calculated.

[2] = molecular target: ternary complex comprising RAS and CypA; KRAS^G12V (Homo sapiens, UniProt P01116+P62937, G12V); experiment: Ternary complex binding assay (BLI), KRAS G12V; conditions: GMPPNP-loaded KRAS^G12V, fixed concentration of CypA, pH 7.4, read-out: KD2 (ternary complex equilibrium dissociation constant)
Chain of ternary complex comprising RAS and CypA; KRAS^G12V (P01116 1-188 isoform P01116-2 G12V): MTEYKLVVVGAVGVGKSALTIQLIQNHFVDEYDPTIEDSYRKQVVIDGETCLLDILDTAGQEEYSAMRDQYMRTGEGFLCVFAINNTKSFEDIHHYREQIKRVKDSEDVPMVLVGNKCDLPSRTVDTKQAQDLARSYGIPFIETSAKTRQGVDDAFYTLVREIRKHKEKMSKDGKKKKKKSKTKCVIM
Chain of ternary complex comprising RAS and CypA; KRAS^G12V (P62937 whole entry): as the sequence (P62937 whole entry) above
Protocol: as §3

[3] = molecular target: ternary complex comprising RAS and CypA; KRAS^WT (Homo sapiens, UniProt P01116+P62937); experiment: Ternary complex binding assay (BLI), KRAS WT; conditions: GMPPNP-loaded KRAS^WT, fixed concentration of CypA, pH 7.4, read-out: KD2 (ternary complex equilibrium dissociation constant)
Chain of ternary complex comprising RAS and CypA; KRAS^WT (P01116 1-188 isoform P01116-2): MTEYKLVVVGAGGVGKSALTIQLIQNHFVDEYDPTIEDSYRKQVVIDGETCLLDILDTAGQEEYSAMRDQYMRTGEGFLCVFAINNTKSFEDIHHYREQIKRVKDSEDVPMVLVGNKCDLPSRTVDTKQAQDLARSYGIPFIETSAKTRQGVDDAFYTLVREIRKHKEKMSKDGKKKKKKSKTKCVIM
Chain of ternary complex comprising RAS and CypA; KRAS^WT (P62937 whole entry): as the sequence (P62937 whole entry) above
Protocol: as §3

[4] = Pharmacokinetic study in mice; type: in vivo; conditions: mouse, male CD-1 mice; for bioavailability: blood; for bioavailability / AUC / Cmax: po; for Vd / clearance: iv; for Vd / clearance / AUC / Cmax: whole blood
Protocol: To evaluate the pharmacokinetic behavior of the compounds of the disclosure in male CD-1 mice, the test compounds were dissolved in a solvent (5% DMSO/10% solutol/85% water). Twelve male CD-1 mice were divided into two groups, with six animals in each group. Group 1 received a single intravenous bolus (i.v.) administration of the compound, and Group 2 received a single oral (p.o.) administration of the compound. Whole blood samples were collected at 0.083 h (intravenous group only), 0.25, 0.5, 1, 2, 4, 8, and 24 hours after dosing. The concentration of the test compound in whole blood samples was determined using the LC-MS/MS method.

| Compound | pIC50 (AsPC-1) | pIC50 (SW480) | pIC50 (H358) | pIC50 (HepG2) | pIC50 (HCT116) | pIC50 (PSN1) | pIC50 (MV411) | pKd (cyclophilin A (CypA)) | kon (cyclophilin A (CypA)) | koff (cyclophilin A (CypA)) | pKd [1] | pKd [2] | pKd [3] | other results |
| --- | --- | --- | --- | --- | --- | --- | --- | --- | --- | --- | --- | --- | --- | --- |
| CO[C@@H](C)c1ncc(-c2nnc(C3CCN(C4COC4)CC3)o2)cc1-c1c2c3cc(ccc3n1CC(F)(F)F)-c1csc(n1)C[C@H](NC(=O)[C@H]1[C@H](C)[C@@H]1C)C(=O)N1CCC[C@H](N1)C(=O)OCC(C)(C)C2 (atropisomer, axis not shown) [Compound 6, (1r,2R,3S)—N-((6^3S,4S,Z)-1^2-(2-((S)-1-methoxyethyl)-5-(5-(1-(oxetan-3-yl)piperidin-4-yl)-1,3,4-oxadiazol-2-yl)pyridin-3-yl)-10,10-dimethyl-5,7-dioxo-1^1-(2,2,2-trifluoroethyl)-6^1,6^2,6^3,6^4,6^5,6^6-hexahydro-1^1H-8-oxa-2(4,2)-thiazola-1(5,3)-indola-6(1,3)-pyridazinacycloundecaphane-4-yl)-2,3-dimethylcyclopropane-1-carboxamide] | 10.70 | 10.52 | 11.15 | 10.40 | 9.36 | 10.40 | 9.92 | 8.52 | 130000 M⁻¹ s⁻¹ | 0.0004 s⁻¹ | 7.62 | 7.59 | 7.80 | bioavailability ([4]; i.v. 1 mpk, p.o. 2 mpk): 43.1%; Vd ([4]; 1 mg/kg, i.v. 1 mpk): 1.14 L/kg; clearance ([4]; 1 mg/kg, i.v. 1 mpk): 2.6 mL/min/kg; AUC ([4]; 2 mg/kg, p.o. 2 mpk): 5630 ng·h/mL; Cmax ([4]; 2 mg/kg, p.o. 2 mpk): 439 ng/mL |
| CO[C@@H](C)c1ncc(-c2nnc(C3CCN(C4COC4)CC3)o2)cc1-c1c2c3cc(ccc3n1CC(F)(F)F)-c1csc(n1)C[C@H](NC(=O)C1[C@@H](C)[C@H]1C)C(=O)N1N[C@H](C(=O)OCC(C)(C)C2)C2CC1C2 (stereo partly shown) [Compound 8] | 11.00 | 11.00 | 11.00 | 10.70 | 10.52 | 11.00 | 10.15 | 8.70 | 330000 M⁻¹ s⁻¹ | 0.00066 s⁻¹ | 8.06 | 8.08 | 8.00 | bioavailability ([4]; i.v. 0.25 mpk, p.o. 0.5 mpk): 54.6%; Vd ([4]; i.v. 0.25 mpk): 1.84 L/kg; clearance ([4]; i.v. 0.25 mpk): 1.8 mL/min/kg; AUC ([4]; 0.5 mg/kg, p.o. 0.5 mpk): 2590 ng·h/mL; Cmax ([4]; 0.5 mg/kg, p.o. 0.5 mpk): 96 ng/mL |
| CO[C@@H](C)c1ncc(-c2nnc(C3CCN(C4CN(C(C)C)C4)CC3)o2)cc1-c1c2c3cc(ccc3n1CC(F)(F)F)-c1csc(n1)C[C@H](NC(=O)[C@H]1[C@H](C)[C@@H]1C)C(=O)N1CCC[C@H](N1)C(=O)OCC(C)(C)C2 (atropisomer, axis not shown) [Compound 10, (1r,2R,3S)—N-((6^3S,4S,Z)-1^2-(5-(5-(1-(1-isopropylazetidin-3-yl)piperidin-4-yl)-1,3,4-oxadiazol-2-yl)-2-((S)-1-methoxyethyl)pyridin-3-yl)-10,10-dimethyl-5,7-dioxo-1^1-(2,2,2-trifluoroethyl)-6^1,6^2,6^3,6^4,6^5,6^6-hexahydro-1^1H-8-oxa-2(4,2)-thiazola-1(5,3)-indola-6(1,3)-pyridazinacycloundecaphane-4-yl)-2,3-dimethylcyclopropane-1-carboxamide] | 11.30 | 11.00 | 10.68 | 10.00 | 9.85 | 10.15 | 9.38 | 8.57 | – | 0.00057 s⁻¹ | 7.77 | 7.92 | 8.03 | ka (association rate constant) (cyclophilin A (CypA)): 2.1E+05 1/[M*s] |

— patent US20260355191A1, “PAN-RAS INHIBITOR COMPOUND” (ADLAI NORTYE BIOPHARMA CO., LTD., priority 2024, published 2026)
